Tests used:
EAE model [1] = assay: Histological evaluation of spinal cord inflammation in rat EAE model; format: in vivo, DA strain rats; conditions: 10 mg/kg once a day through a feeding tube, 12 days after immunization
EAE model [2] = assay: Clinical disease ameliorating effect in rat EAE (multiple sclerosis) model; format: in vivo, DA strain rats; conditions: DA rats
[3] = 10 mg/kg once a day through a feeding tube

## CC(C)C(=O)c1c(C(C)C)nn2ccccc12 [ibudilast]
EAE model [1]
  histological effect in comparison with the control: significant effect histologically
EAE model [1]; score scale 0-4
  average histological score (inflammation, lumbar spinal cord, hematoxylin-eosin): about 2.0
EAE model [2]; 2 mg/kg once a day through a feeding tube
  clinical disease condition (clinical score) versus control group: tendency of amelioration
EAE model [2]; [3]
  body weight decrease: suppressed significantly
  clinical disease condition (clinical score) versus control group: significant amelioration
EAE model [2]; ibudilast-treated group, oral once a day
  disease onset: delayed

Reference: patent US6395747B1, “Remedies for multiple sclerosis” (Kyorin Pharmaceutical Co., Ltd., priority 2001, dated 2002)
